Reference: article PMC9437973 (Journal of medicinal chemistry, 2021)
Entries after “also recorded” stand apart in the source; their conditions may differ.

What was measured:
[1] = test system: GluN1/2D; conditions: cited from earlier work
[2] = test system: GluN1/2A; conditions: cited from earlier work
[3] = test system: GluN1/2C; conditions: cited from earlier work
[4] = test system: GluN1/2B; conditions: cited from earlier work
[5] = target: GluN1/2D NMDA receptor (Rattus norvegicus, UniProt P35439); assay type: cell-based
[6] = target: GluN1/2B NMDA receptor (Rattus norvegicus, UniProt P35439); assay type: cell-based; conditions: for current response to analog alone at GluN1/2B: 10 μM analog, continuous presence of 300 μM L-Glu
[7] = target: GluN1^FATL/3A receptors (Rattus norvegicus, UniProt Q9R1M7); assay: Two-electrode voltage-clamp at GluN1^FATL/3A receptors; assay type: cell-based; conditions: for activation of current responses at GluN1^FATL/3A: 10 μM analog alone; for inhibition of responses to Gly at GluN1^FATL/3A: 10 μM analog in presence of Gly
GluN1^FATL/3A receptors, sequence (Q9R1M7 24-1115 isoform Q9R1M7-2 limits assumed, other chains not shown): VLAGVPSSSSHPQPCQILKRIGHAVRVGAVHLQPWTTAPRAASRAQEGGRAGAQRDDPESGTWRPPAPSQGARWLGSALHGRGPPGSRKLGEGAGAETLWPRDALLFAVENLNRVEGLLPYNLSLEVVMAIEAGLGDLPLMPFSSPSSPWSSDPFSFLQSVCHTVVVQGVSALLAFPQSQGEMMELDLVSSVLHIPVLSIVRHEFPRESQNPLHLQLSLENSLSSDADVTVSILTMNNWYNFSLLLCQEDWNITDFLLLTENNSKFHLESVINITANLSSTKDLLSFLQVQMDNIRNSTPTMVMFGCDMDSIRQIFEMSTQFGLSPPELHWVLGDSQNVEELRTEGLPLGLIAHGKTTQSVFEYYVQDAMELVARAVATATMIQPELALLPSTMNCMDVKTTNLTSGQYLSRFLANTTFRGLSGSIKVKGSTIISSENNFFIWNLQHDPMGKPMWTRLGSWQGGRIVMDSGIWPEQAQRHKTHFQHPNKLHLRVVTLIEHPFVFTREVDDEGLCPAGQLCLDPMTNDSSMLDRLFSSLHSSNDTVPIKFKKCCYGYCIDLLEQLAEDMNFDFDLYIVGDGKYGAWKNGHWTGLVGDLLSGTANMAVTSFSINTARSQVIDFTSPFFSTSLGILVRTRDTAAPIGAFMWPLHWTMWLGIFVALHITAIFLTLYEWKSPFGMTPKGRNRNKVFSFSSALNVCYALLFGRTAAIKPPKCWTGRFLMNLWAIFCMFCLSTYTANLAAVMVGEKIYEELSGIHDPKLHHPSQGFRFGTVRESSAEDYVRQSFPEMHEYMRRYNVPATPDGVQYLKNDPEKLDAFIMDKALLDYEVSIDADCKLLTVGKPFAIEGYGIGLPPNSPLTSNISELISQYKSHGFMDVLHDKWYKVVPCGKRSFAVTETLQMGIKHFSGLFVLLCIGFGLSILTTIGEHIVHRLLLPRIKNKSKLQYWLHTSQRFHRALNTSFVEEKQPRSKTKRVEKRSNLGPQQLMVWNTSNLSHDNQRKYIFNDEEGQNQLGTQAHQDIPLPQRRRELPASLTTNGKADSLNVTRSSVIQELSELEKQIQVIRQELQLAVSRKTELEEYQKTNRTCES

[8] = target: GluN1^FATL/3B receptors (Rattus norvegicus, UniProt Q8VHN2); assay: Two-electrode voltage-clamp at GluN1^FATL/3B receptors; assay type: cell-based; conditions: for activation of current responses at GluN1^FATL/3B: 10 μM analog alone; for inhibition of responses to Gly at GluN1^FATL/3B: 10 μM analog in presence of Gly
GluN1^FATL/3B receptors, sequence (Q8VHN2 25-1002, other chains not shown): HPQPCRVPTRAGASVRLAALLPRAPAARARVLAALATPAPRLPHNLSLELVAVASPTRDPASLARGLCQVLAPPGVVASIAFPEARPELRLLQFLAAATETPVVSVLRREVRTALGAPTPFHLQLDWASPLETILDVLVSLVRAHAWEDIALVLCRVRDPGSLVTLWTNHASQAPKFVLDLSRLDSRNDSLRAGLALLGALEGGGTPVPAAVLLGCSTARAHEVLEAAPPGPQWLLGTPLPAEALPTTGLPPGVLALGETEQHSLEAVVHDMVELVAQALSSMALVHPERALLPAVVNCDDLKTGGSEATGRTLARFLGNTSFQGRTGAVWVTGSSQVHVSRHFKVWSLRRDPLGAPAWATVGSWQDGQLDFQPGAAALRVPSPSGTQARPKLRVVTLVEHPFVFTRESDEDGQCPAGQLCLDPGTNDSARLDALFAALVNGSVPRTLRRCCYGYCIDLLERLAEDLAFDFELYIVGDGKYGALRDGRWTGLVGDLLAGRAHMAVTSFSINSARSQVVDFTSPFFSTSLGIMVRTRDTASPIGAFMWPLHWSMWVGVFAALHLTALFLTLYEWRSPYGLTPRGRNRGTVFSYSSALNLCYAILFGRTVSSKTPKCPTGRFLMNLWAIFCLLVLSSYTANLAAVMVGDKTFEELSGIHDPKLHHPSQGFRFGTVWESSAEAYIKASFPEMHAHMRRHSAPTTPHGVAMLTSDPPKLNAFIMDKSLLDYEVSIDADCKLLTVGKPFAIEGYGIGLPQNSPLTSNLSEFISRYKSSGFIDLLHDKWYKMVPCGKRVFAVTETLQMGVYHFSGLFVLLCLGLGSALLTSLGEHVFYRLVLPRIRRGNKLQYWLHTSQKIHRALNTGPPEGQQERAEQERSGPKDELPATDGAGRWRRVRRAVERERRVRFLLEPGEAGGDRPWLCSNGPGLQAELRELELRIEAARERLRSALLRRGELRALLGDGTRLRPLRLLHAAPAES

[9] = target: Gly binding site in GluN1/2B receptors (Rattus norvegicus, UniProt P35439+Q00960); assay: Inhibition of Gly responses at recombinant GluN1/2B; assay type: cell-based
[10] = target: GluN1/2A-V783F (Rattus norvegicus, UniProt P35439); assay: Two-electrode voltage-clamp at mutated GluN1/2A-V783F receptors; assay type: cell-based; conditions: 10 μM analog; 300 μM L-Glu
[11] = target: GluN1/2A NMDA receptor (Rattus norvegicus, UniProt P35439); assay type: cell-based
[12] = target: GluN1/2A-V783L (Rattus norvegicus, UniProt P35439); assay: Two-electrode voltage-clamp at mutated GluN1/2A-V783L receptors; assay type: cell-based; conditions: 10 μM analog; 300 μM L-Glu
[13] = target: GluN1/2B-F784L (Rattus norvegicus, UniProt P35439); assay: Two-electrode voltage-clamp at mutated GluN1/2B-F784L receptors; assay type: cell-based; conditions: 10 μM analog; 300 μM L-Glu
[14] = target: GluN1/2B-F784V (Rattus norvegicus, UniProt P35439); assay: Two-electrode voltage-clamp at mutated GluN1/2B-F784V receptors; assay type: cell-based; conditions: 10 μM analog; 300 μM L-Glu
[15] = maximal response compared to Gly

| agonist activity at GluN1/2D (in words) [5] | agonist activity at GluN1/2B (in words) [6] | inhibition of responses to Gly at GluN1^FATL/3A [7] | inhibition of responses to Gly at GluN1^FATL/3B [8] | Ki [9] [nM] | SMILES | activation of current responses at GluN1^FATL/3A [7] | activation of current responses at GluN1^FATL/3B [8] | current response to analog alone at GluN1/2B [6] | also measured |
| --- | --- | --- | --- | --- | --- | --- | --- | --- | --- |
|  |  |  |  |  | CCc1ccccc1-c1cccc2[nH]c(C(=O)NC[C@@H](N)C(=O)O)cc12 [AICP, (R)-2-Amino-3-(4-(2-ethylphenyl)-1H-indole-2-carboxamido)propanoic acid] |  |  |  | Rmax at GluN1/2D [1, 15]: 27%; EC50 ([1]; read-out: EC50 at GluN1/2D, partial agonist): 25 nM; Rmax at GluN1/2A [2, 15]: 100%; EC50 ([2]; read-out: EC50 at GluN1/2A, full agonism): 66 nM; Rmax at GluN1/2C [3, 15]: 353%; EC50 ([3]; read-out: EC50 at GluN1/2C, superagonism): 1.7 nM; Rmax at GluN1/2B [4, 15]: 10%; EC50 ([4]; read-out: EC50 at GluN1/2B, partial agonist): 25 nM |
| no agonist activity | no agonist activity |  |  |  | N[C@H](CNC(=O)c1ccc(-c2ccccc2C(F)(F)F)o1)C(=O)O [Compound 8d, (R)-2-Amino-3-(5-(2-(trifluoromethyl)phenyl)furan-2-carboxamido)propanoic acid] |  |  |  |  |
|  | no agonist activity | did not inhibit responses to Gly | did not inhibit responses to Gly | ~100 | CCc1ccccc1-c1ccc(C(=O)NC[C@@H](N)C(=O)O)o1 [Compound 8h, (R)-2-Amino-3-(5-(2-ethylphenyl)furan-2-carboxamido)propanoic acid] | No responses; also recorded: did not activate current responses | No responses; also recorded: did not activate current responses | unable to activate any current responses; also recorded: No responses |  |
| virtually no agonist activity | virtually no agonist activity | did not inhibit responses to Gly | did not inhibit responses to Gly | ~100 | N[C@H](CNC(=O)c1ccc(-c2ccc(Cl)cc2[N+](=O)[O-])o1)C(=O)O [Compound 8p, (R)-2-amino-3-(5-(4-chloro-2-nitrophenyl)furan-2-carboxamido)propanoic acid] | No responses; also recorded: did not activate current responses | No responses; also recorded: did not activate current responses | unable to activate any current responses; also recorded: No responses | maximal response relative to Gly at GluN1/2A-V783F versus wild type [10]: reduced the maximal response; agonist activity at GluN1/2A (in words) [11]: virtually no agonist activity; maximal response relative to Gly at GluN1/2A-V783L versus wild type [12]: reduced the maximal response; maximal response relative to Gly at GluN1/2B-F784L versus wild type [13]: did not significantly increase the maximal response; maximal response relative to Gly at GluN1/2B-F784V versus wild type [14]: did not significantly increase the maximal response |
